A melting point compilation (Tetko et al.; mined from patent text by program, amines drawn as free bases though some values may be those of a salt)

melting point [°C] | Compound
110 | CCOC(Cc1ccc(OCCN2CCSc3ccccc32)cc1)C(=O)O (single isomer, unassigned; (-))
108 | N#CC(C#N)(Cc1ccc(Cl)cc1)C1CCCCC1
138 to 139 | OCC#Cc1cccc2ccncc12
73 to 75 | CCC(Oc1ccc(C(C)(C)CC)cc1C(C)(C)CC)C(=O)Nc1ccc(Cl)c(NC(=O)CC(=O)C(C)(C)Sc2ccccc2)c1 (stereo not given)
76 to 77 | N[C@@H](Cc1cccc(C(F)(F)F)c1)[C@H](O)c1ccc(F)cc1 (racemic)
196 | CCOc1ccc2c(c1)C(C)(c1cccc(O)c1)C(=O)N2S(=O)(=O)c1ccc(C(=O)NC(C)(C)C)cc1 (stereo not given)
164 to 165 | Clc1ncccc1OCC#CI
125 | CCCCn1ccc(-c2ccc(Oc3ccnc(C)c3)c(F)c2)c(C#N)c1=O
194 to 196 | COc1cc2c(Nc3ccc(Oc4cccnc4)cc3)c(C#N)cnc2cc1N1CCC(N2CCCC2)CC1
65 | CCCCCCCCCCCCCCCCCCN=C=NCCCCCCCCCCCCCCCCCC
121 to 128 | CCOC(=O)Nc1cc(-c2ccccc2)n(-c2ccc(S(N)(=O)=O)cc2)n1
105 | COC(=O)c1ccc(S(=O)(=O)Cc2c(O[C@H](Cn3ccnc3)c3ccccc3)ccc3c2CCCC3=O)cc1
62 | CCCO[C@@H]1C[C@@H](C(=O)NC)N(S(=O)(=O)c2ccc(Cl)c(CBr)c2Cl)C1
142 | O=c1ccc(-c2ccc(OC(F)F)c(OCC3CC3)c2)n[nH]1
176 | CCN(Cc1cc(Br)ccc1NCc1ccccc1)c1ccc(C(=O)O)nn1
> 275 | O=C(Nc1nc(-c2ccccc2)c(-c2nc3ccccc3c(=O)n2-c2ccc(Cl)cc2)s1)c1ccccc1
110 to 112 | COc1ccc(Nc2ccccc2CCC(=O)c2ccccc2)cc1
102 | Cc1cc2cc(C#CCO)ccc2o1
198 to 201 | CCn1c(=O)c2[nH]c(C(C)C)nc2n(Cc2ccc(OC)c(OC)c2)c1=O
173 to 174 | O=C(Nc1ccc(O)cc1)c1ccc(OC2CCCCO2)cc1 (stereo not given)
88 to 92 | CN(C)CC(=O)N1CCC(c2cc(F)ccc2F)(S(=O)(=O)c2ccc(Cl)cc2)CC1
> 275 | Cc1ccc(-n2c(-c3sc(NC(=O)c4ccccc4)nc3-c3ccccc3)nc3ccccc3c2=O)cc1
198 | CCOc1ccccc1C1(Cl)C(=O)Nc2ccc(Cl)cc21 (stereo not given)
170 to 171 | CCOCC1(C)CCCOc2cc(C#Cc3ccc(C(=O)O)cc3)ccc21 (stereo not given)

melting point [°C] | Compound
158 to 159 | Cc1ccc2c(c1)C=Cn1c(nnc1S(C)=O)C2 (stereo not given)
104 to 106 | CC(=O)Nc1ccc(OCCOc2ccccc2)cc1[N+](=O)[O-]
121 to 122 | Cc1c(C)n(C2CC2)c2c(OCc3ccccc3)nncc12
86 | CC1(C)CC(N(C=O)CCc2ccccc2)CC(C)(C)N1
> 260 | O=C1c2ccccc2C(=O)c2sc(-c3ccccc3F)nc21
78 to 80 | COc1cc(C=CC(=O)CCCCO)cc(OC)c1
136 to 138 | COc1ccc(-c2cnc(N)c(Sc3cc(C(F)(F)F)cc(C(F)(F)F)c3)n2)cc1
65 | Clc1cccc(C2=NOCCS2)c1
302 to 304 | CC(C)c1n[nH]c2c(O)ncnc12
154 to 155 | O=CN(O)C(CCc1ncc(F)cn1)CS(=O)(=O)N1CCN(c2ccc(Cl)cn2)CC1 (stereo not given)
76 to 77 | Clc1ccccc1Oc1c(Cl)ncnc1Cl
144 to 146 | CCOc1c(C(F)(F)F)cc([N+](=O)[O-])c2nc(C(F)(F)F)[nH]c12
209 to 211 | O=C(O)COc1cc2cc(-c3ccccc3)sc2c(Cl)c1Cl
105 to 107 | CS(=O)c1ccc2nc(C(F)(F)F)nc(Cl)c2c1 (stereo not given)
116 | COCC(=O)N1CCc2nc3ccccc3c(C)c2CC1
137 | CC(C)S(=O)(=O)c1ccc2c(c1)nc(CC1CCCC1)n2CC1CC1
94 to 96 | CCOC(=O)c1ccc2c(c1)C(=C1CCN(C)CC1)c1ccccc1C=C2
274 to 276 | CC(=O)c1cc(O)cc2cc(-c3ccc(O)cc3)oc12
121 to 140 | CCN(CC)Cc1cc(C2(c3cccc(-c4cccnc4F)c3)N=C(N)N(C)C2=O)cn1CCF (stereo not given)
178 to 180 | O=C(Nc1ccc(Br)cc1)c1cc2ccccc2o1
163 to 165 | CC(C)(C)C(=O)Oc1c(N2CCCC2)c(=O)n(-c2ccccc2)c2ncccc12
139 to 146 | COc1ccc2c(c1)c(CCOC(=O)c1cc(O)c3c(c1)C(=O)c1cccc(O)c1C3=O)c(C)n2C(=O)c1ccc(Cl)cc1
113 to 114 | COc1ccc(CCn2cc(C(=O)NCCN(C)C)c3nc4c(C)cccc4cc3c2=O)cc1OC
283 to 286 | O=C(O)C1Cc2c(ccc3c(=O)c4ccccc4oc23)O1 (stereo not given)

melting point [°C] | Compound
212 to 213 | CCN1CCCC(NC(=O)c2ccccc2Nc2ccnc3c(C(F)(F)F)cccc23)C1 (stereo not given)
169 to 170 | O=C(O)CCCCN(C(=O)c1ccc(Cl)cc1)c1cccc2ccccc12
20 to 22 | O=C1CO[C@@H]2CCCC[C@H]2O1 (relative stereo)
288 to 289 | O=C(O)c1ccc(-c2coc(-c3ccc(Cl)cc3)n2)cc1
85 to 87 | C[C@@H]1CN(C(=O)OC(C)(C)C)Cc2cc3cc(F)cnc3n21
189 to 190 | O=S(=O)(O)CC(O)CNCC(O)O (stereo not given)
176 to 178 | CC(C)(O)COc1c(-c2ccc(S(N)(=O)=O)cc2)cnn(-c2ccc(F)c(Cl)c2)c1=O
184 to 187 | COc1ccc(OC)c2c1C[C@@H](O)[C@H](N1CCN(c3cccc(C(F)(F)F)c3)CC1)C2 (relative stereo)
238 to 240 | COC(=O)c1cc(C)cc(NC(=O)c2nnn[nH]2)c1O
168 to 170 | Cc1ccc(-c2cn(C)cc(-c3ccccc3)c2=O)cc1Br
46 to 48 | COc1ccc(C[C@@H]2CCc3ncc(C)cc3C2)cc1
119 to 121 | CC(=O)c1ccc(S(=O)(=O)NCCO)cc1
136 to 138 | Cc1c(C)c2c(c(C)c1NC(=O)C(C)C)CC(C)(C)O2
44 to 45 | CC(N)C(O)(c1ccccc1)c1ccccc1 (stereo not given)
207 | Nc1nccc(Oc2ccc3c(c2)CCCCN3C(=O)Nc2cccc(C(F)(F)F)c2)n1
143 to 144 | CN1Cc2cncn2C(c2ccc(Br)cc2)C1=O (stereo not given)
106 to 107 | CCNC(=O)C(C)NS(=O)(=O)c1ccc(C)cc1 (racemic)
127 to 129 | CC(C)[C@H](NS(=O)(=O)c1ccc2c(Cl)cnc(Cl)c2c1)C(=O)OC(C)(C)C
214 to 217 | CCNCC1CCN(c2c(F)cc3c(=O)c(C(=O)O)cn(C4CCCC4)c3c2F)C1 (stereo not given)
202 to 204 | Cc1ccc2nc(-c3cc(C(F)(F)F)nn3-c3ccc(S(C)(=O)=O)cc3)sc2c1
> 320 | Nc1nc2cc3[nH]c(-c4ccncc4)nc3cc2[nH]1
204 | CC1=C(CNC(=O)NCc2ccccc2)c2cc(F)ccc2/C1=C\c1ccc(S(C)(=O)=O)cc1
76 to 80 | CC(C)(C)c1cc(C[C@@H]2N[C@@H](c3ccccc3)[C@@H](c3ccccc3)OC2=O)ccc1O
109 to 111 | CC1CC(N)=NN1c1ccc(Cl)cc1Cl (stereo not given)

melting point [°C] | Compound
75 | CCCCCCCCCCCCCCCCOC(=O)CCCCCCCCCCCCCCC
118 to 120 | Cc1cc2c(-c3cccc(Cl)c3)nc(Cl)nc2s1
256 to 258 | O=C1Nc2cccc(I)c2/C1=C/c1ccc[nH]1
130 to 131 | CCOC(=O)c1sc(NC(C)=O)c(C(=O)OCC)c1C
145 | c1cnnc(N2CCN(CCCOc3ccc(C4=NCCO4)cc3)CC2)c1
70 to 72 | CCOC(=O)c1ccc(S(C)(=O)=O)nc1C(F)(F)F
144 to 148 | O=C(O)C=CC(=O)NCCCCCCCCCCCCCCCCCC(=O)O
86 to 90 | CC(C)c1c(NC(=O)OCc2ccccc2)nc(-c2ccc(F)cc2)n1CCC1CC(O)CC(=O)O1 (stereo not given)
220 | O=C(Nc1ccc2[nH]ncc2c1)O[C@@H](c1cc(F)cc(Cl)c1)[C@H]1CCCCN1
228 to 229 | Cc1ccc(-c2ccc3c(c2)C=C(C(=O)Nc2ccc(-c4ccccn4)cc2)CCO3)cc1
197 to 198 | COc1cc2c(cc1O)CCN(C(=O)c1cccc(C#N)c1)C2=O
160 to 161 | COc1cc(OC)c(NC(=O)CBr)c(OC)c1
104 to 106 | CCN(C=Nc1ccncc1O)CC
247 to 248 | Cc1c(-c2ccncc2)[nH]c2c1C(=O)CC(C)C2 (stereo not given)
126 to 127 | Fc1ccc(N2CCN(Cc3ccc4c(c3)NCCN4)CC2)cc1
216 | CC1(C(F)(F)F)OC(=O)Nc2ccc(Cl)cc21 (stereo not given)
201 to 203 | O=C(Oc1ccc(OC(=O)c2cc(O)cc(O)c2)c2ccccc12)c1cc(O)cc(O)c1
88 to 90 | COC(=O)[C@@H](NS(=O)(=O)c1ccc(Br)cc1)C(C)C
79 to 80 | c1ccc2c(c1)COC2=N[C@@H]1CCc2ccccc21
128 to 130 | CCOC(=O)c1ccc(NCc2ccc(OC)cc2)cc1
129 | COC(=O)CNC(=O)c1nc(Cl)c2ccccc2c1O
130 to 148 | CC(C)(C)OC(=O)Nc1cc(NCCO)c(I)cc1[N+](=O)[O-]
111 to 112 | COc1cc(OC)cc(C(NCC(=O)Nc2c(C(C)C)cccc2C(C)C)c2ccccc2)c1 (stereo not given)

Compound | melting point [°C]
CCOc1ccc(C=NOCCO)cn1 | 52 to 54
Cc1c(C)c2c(c(C)c1N)CC(C)(CN1CC=C(c3c[nH]c4ccccc34)CC1)O2 (stereo not given) | 169 to 173
O=C(Nc1ccccc1C(F)(F)F)ONC1=Nc2ccc(Cl)cc2C(c2ccccc2)=NC1 | 190
Cn1cncc1C(c1ccc(Cl)cc1)c1ccc2c(c1)C(c1cccc(Cl)c1)SCc1nnnn1-2 (stereo not given) | 162
Cc1cnc2c(c1)CCCC2Cl (stereo not given) | 177
